Tests used:
[1] = test system: human ovarian cancer cell A2780; assay: proliferation inhibitory activity against A2780 cells (CellTiter-Glo); type: cell-based; details: A2780, 72 h, 1 μM test compound, 3 days of culture, read-out: proliferation inhibitory rate (%) of A2780 cells
Protocol: The proliferation inhibitory activity of the compound of the present invention against human ovarian cancer cell A2780 was evaluated by the following method.
Human ovarian cancer cells A2780 were seeded in a 384 well culture plate at 1000 cells in 30 μL of medium per well by using RPMI-1640 medium (Wako Pure Chemical Industries, Ltd.) containing 10% fetal bovine serum and penicillin/streptomycin. The next day, 10 μL of RPMI-1640 medium containing the test compound was added to the cells. After 3 days of culture, 20 μL of CellTiter-Glo Luminescent Cell Viability Assay solution (Promega, Fitchburg, Wis., US) was added. The luminescence signal was measured using EnVision (PerkinElmer, Waltham, Mass., US) and the inhibitory rate (%) of the test compound was calculated with a well free of seeding of cell as 100% inhibition.

[2] = target: T1, human PRS protein (Homo sapiens, UniProt P07814); assay: PRS inhibitory activity (ATP/[32P]pyrophosphate exchange enzyme reaction); type: biochemical; details: 300 nM test compound; recombinant human PRS (EPRS 998-1512); read-out: inhibitory rate (%) of PRS
T1 construct: to construct His-Avi-hEPRS (998-1512) expression plasmid; His tag (N); Avi tag (N); TEV cleavage site (ENLYFQ/GS, encoded by forward primer hEPRS-TEV-NheF) (N); made in house; host or cells: E. coli BL21(DE3)
T1 sequence (P07814 998-1512): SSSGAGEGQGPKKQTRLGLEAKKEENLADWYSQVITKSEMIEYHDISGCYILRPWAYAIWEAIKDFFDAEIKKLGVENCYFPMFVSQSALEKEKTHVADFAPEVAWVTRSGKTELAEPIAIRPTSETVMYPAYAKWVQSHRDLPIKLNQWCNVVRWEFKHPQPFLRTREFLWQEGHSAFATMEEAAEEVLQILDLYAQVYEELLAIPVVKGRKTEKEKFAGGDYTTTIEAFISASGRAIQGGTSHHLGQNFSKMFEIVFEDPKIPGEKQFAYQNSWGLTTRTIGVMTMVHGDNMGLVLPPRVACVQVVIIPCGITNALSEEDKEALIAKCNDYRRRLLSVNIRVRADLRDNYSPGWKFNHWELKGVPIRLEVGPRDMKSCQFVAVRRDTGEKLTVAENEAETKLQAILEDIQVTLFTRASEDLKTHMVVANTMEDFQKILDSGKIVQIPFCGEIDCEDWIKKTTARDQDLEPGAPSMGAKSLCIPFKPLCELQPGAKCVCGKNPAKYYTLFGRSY
Protocol: The PRS inhibitory activity of the compounds of the present invention was evaluated by the following method.
An expression plasmid of Catalytic Domain of human EPRS was obtained by PCR using human skeletal muscle cDNA Library (Takara Bio Inc.) as a template and 2 kinds of Primers 5′-[…]-3′ (hEPRS-TEV-NheF) (SEQ ID NO: 1) and 5′-[…]-3′ (hEPRS-St-Not-R) (SEQ ID NO: 2). PCR was performed using PrimeStar GXL DNA Polymerase (Takara Bio Inc.) and included (1) 98° C., 1 min, (2) cycles of 98° C., 10 sec, 65° C., 10 sec, 72° C., 1 min, and (3) reaction at 72° C., 1 min. This was cleaved with Nhe I and Not I (Takara Bio Inc.) and inserted using Ligation High (TOYOBO CO., LTD.) into the Nhe I/Not I site of pET21a (Novagen) with His-Avitag inserted thereinto. This was introduced into ECOS JM109 (NIPPON GENE CO., LTD.) to construct His-Avi-hEPRS (998-1512) expression plasmid.
Recombinant human PRS protein was prepared by transforming the His-Avi-hEPRS (998-1512) expression plasmid prepared above into ECOS Competent E. coli BL21(DE3) (NIPPON GENE CO., LTD.). Escherichia coli obtained by transformation was inoculated into 300 mL of LB medium (1% peptone, 0.5% yeast extract, 0.5% sodium chloride, 0.01% ampicillin) and cultured at 30° C. for 16 hr. The obtained culture medium was transferred into a jar culture tank charged with 6 L of the main fermentation medium (0.3% potassium dihydrogen phosphate, 0.6% disodium hydrogen phosphate, 0.1% ammonium chloride, 0.05% sodium chloride, 0.024% magnesium sulfate, 0.02% NEWPOL LB-625, 1.5% sorbitol, 1.5% casamino acid, 0.5% yeast extract, 0.01% ampicillin) and culturing was started at 37° C., quantity of airflow 5 L/min, stirring rotating speed 400 rpm. At the time point when the turbidity of the culture medium reached about 550 Klett units, the culture temperature was lowered to 16° C., isopropyl-β-D-thiogalactopyranoside (IPTG) was added to the final concentration 0.1 mM, and culturing was performed for another 16 hr to induce expression of human PRS. After completion of culturing, the culture medium was centrifuged at 5,000 rpm for 10 min. The obtained human PRS expressing Escherichia coli was suspended in a buffer containing 50 mM Tris-HCl (pH 8.0), 150 mM NaCl, 1 mM DTT, 5 U/ml Benzonase, 20 mM Imidazole and sonicated using Sonifier (BRANSON). The homogenate was centrifuged (33,000×G, 60 min, Beckman Coulter), the obtained supernatant was subjected to adsorption by passage through Ni-NTA Superflow (QIAGEN) column equilibrated in advance with 50 mM Tris-HCl (pH 8.0), 300 mM NaCl, 1 mM DTT, and elution was performed with a buffer containing 50 mM Tris-HCl (pH 8.0), 300 mM NaCl, 1 mM DTT, 250 mM Imidazole. Furthermore, gel filtration was performed using […] equilibrated in advance with a buffer containing 50 mM Tris-HCl (pH 8.0), 150 mM NaCl, 1 mM DTT, 10% glycerol to give purified human PRS protein. The protein concentration was measured using BCA Protein Assay Kit (PIERCE) and BSA as the standard.
A test compound was dissolved in 5 μL of an assay buffer (50 mM Tris-HCl (pH 7.5), 20 mM KCl, 1 mM DTT, 0.01% Tween 20) and incubated for 60 min with 5 μL of 40 nM human PRS protein dissolved in the assay buffer containing 40 mM MgCl2. An enzyme reaction of the human PRS protein was started by adding 10 μL of a substrate solution containing 300 μM ATP, 160 μM L-Proline, 400 μM pyrophosphate, [^32P]pyrophosphate (PerkinElmer, Waltham, Mass.) prepared to 1 MBq/mL. After incubation at room temperature for 30 min, the reaction was discontinued by adding 50 μL of discontinuation/washing solution (1M HCl, 200 mM sodium pyrophosphate) to the reaction mixture. The reaction solution was transferred to a filter plate (Merck Millipore, Billerica, Mass.) previously added with 200 μL of charcoal solution (0.5% HCl solution containing 10% charcoal (w/v)). […]

Row | Compound | inhibition at 0.3 µM [2] | inhibition at 1 µM [1]
1 | Cc1cc(N2CC[C@@](C#N)(C3CC3)C2=O)cc(NC(=O)Cc2ccccc2)n1 [Example 20, N-(4-((3S)-3-cyano-3-cyclopropyl-2-oxopyrrolidin-1-yl)-6-methylpyridin-2-yl)-2-phenylacetamide] | 94% | 63%
2 | Cn1cc(-c2cccc(CC(=O)Nc3cc(N4CC[C@@](C#N)(C5CC5)C4=O)ccn3)c2)cn1 [Example 26, N-(4-((3S)-3-cyano-3-cyclopropyl-2-oxopyrrolidin-1-yl)pyridin-2-yl)-2-(3-(1-methyl-1H-pyrazol-4-yl)phenyl)acetamide] | 100% | 92%
3 | Cc1cc(N2CC[C@@](C#N)(C3CC3)C2=O)cc(NC(=O)Cc2cccc3ccccc23)n1 [Example 27, N-(4-((3S)-3-cyano-3-cyclopropyl-2-oxopyrrolidin-1-yl)-6-methylpyridin-2-yl)-2-(1-naphthyl)acetamide] | 97% | 74%
4 | N#C[C@@]1(C2CC2)CCN(c2ccnc(NC(=O)Cc3cccc(-c4ccncc4)c3)c2)C1=O [Example 29, N-(4-((3S)-3-cyano-3-cyclopropyl-2-oxopyrrolidin-1-yl)pyridin-2-yl)-2-(3-(pyridin-4-yl)phenyl)acetamide] | 97% | 60%
5 | Cc1cc(N2CC[C@@](C#N)(C3CC3)C2=O)cc(NC(=O)Cc2cccc(-c3cnn(C)c3)c2)n1 [Example 30, N-(4-((3S)-3-cyano-3-cyclopropyl-2-oxopyrrolidin-1-yl)-6-methylpyridin-2-yl)-2-(3-(1-methyl-1H-pyrazol-4-yl)phenyl)acetamide] | 99% | 99%
6 | Cn1cc(-c2cc(F)cc(CC(=O)Nc3cc(N4CC[C@@](C#N)(C5CC5)C4=O)ccn3)c2)cn1 [Example 35, N-(4-((3S)-3-cyano-3-cyclopropyl-2-oxopyrrolidin-1-yl)pyridin-2-yl)-2-(3-fluoro-5-(1-methyl-1H-pyrazol-4-yl)phenyl)acetamide] | 102% | 97%
7 | CCn1cc(-c2cccc(CC(=O)Nc3cc(N4CC[C@@](C#N)(C5CC5)C4=O)ccn3)c2)cn1 [Example 37, N-(4-((3S)-3-cyano-3-cyclopropyl-2-oxopyrrolidin-1-yl)pyridin-2-yl)-2-(3-(1-ethyl-1H-pyrazol-4-yl)phenyl)acetamide] | 99% | 90%
8 | N#C[C@@]1(C2CC2)CCN(c2ccnc(NC(=O)Cc3cccc(-c4cnn(CC(F)F)c4)c3)c2)C1=O [Example 38, N-(4-((3S)-3-cyano-3-cyclopropyl-2-oxopyrrolidin-1-yl)pyridin-2-yl)-2-(3-(1-(2,2-difluoroethyl)-1H-pyrazol-4-yl)phenyl)acetamide] | 100% | 88%
9 | Cn1cc(-c2cccc(CC(=O)Nc3cc(N4CC[C@@](C#N)(C5CC5)C4=O)ccn3)c2)ccc1=O [Example 41, N-(4-((3S)-3-cyano-3-cyclopropyl-2-oxopyrrolidin-1-yl)pyridin-2-yl)-2-(3-(1-methyl-6-oxo-1,6-dihydropyridin-3-yl)phenyl)acetamide] | 101% | 72%
10 | N#C[C@@]1(C2CC2)CCN(c2ccnc(NC(=O)Cc3cccc(-c4cnn(C5CC5)c4)c3)c2)C1=O [Example 42, N-(4-((3S)-3-cyano-3-cyclopropyl-2-oxopyrrolidin-1-yl)pyridin-2-yl)-2-(3-(1-cyclopropyl-1H-pyrazol-4-yl)phenyl)acetamide] | 100% | 84%

Continued, in another order:

Row | inhibition at 0.3 µM [2] | Compound | inhibition at 1 µM [1]
11 | 100% | N#C[C@@]1(C2CC2)CCN(c2ccnc(NC(=O)Cc3cccc(-c4cnn(C(F)F)c4)c3)c2)C1=O [Example 44, N-(4-((3S)-3-cyano-3-cyclopropyl-2-oxopyrrolidin-1-yl)pyridin-2-yl)-2-(3-(1-(difluoromethyl)-1H-pyrazol-4-yl)phenyl)acetamide] | 86%
12 | 97% | Cc1ncc(-c2cccc(CC(=O)Nc3cc(N4CC[C@@](C#N)(C5CC5)C4=O)ccn3)c2)s1 [Example 45, N-(4-((3S)-3-cyano-3-cyclopropyl-2-oxopyrrolidin-1-yl)pyridin-2-yl)-2-(3-(2-methyl-1,3-thiazol-5-yl)phenyl)acetamide] | 76%
13 | 99% | Cn1cc(-c2cccc(CC(=O)Nc3cc(N4CC[C@@](C#N)(C5CC5)C4=O)ccn3)c2)nn1 [Example 47, N-(4-((3S)-3-cyano-3-cyclopropyl-2-oxopyrrolidin-1-yl)pyridin-2-yl)-2-(3-(1-methyl-1H-1,2,3-triazol-4-yl)phenyl)acetamide] | 66%
14 | 87% | N#C[C@@]1(C2CC2)CCN(c2ccnc(NC(=O)Cc3cccc(Cl)c3)n2)C1=O [Example 129, 2-(3-chlorophenyl)-N-(4-((3S)-3-cyano-3-cyclopropyl-2-oxopyrrolidin-1-yl)pyrimidin-2-yl)acetamide] | 
15 | 84% | N#C[C@@]1(C2CC2)CCN(c2ccnc(NC(=O)Cc3ccc(Cl)s3)n2)C1=O [Example 130, 2-(5-chloro-2-thienyl)-N-(4-((3S)-3-cyano-3-cyclopropyl-2-oxopyrrolidin-1-yl)pyrimidin-2-yl)acetamide] | 
16 | 89% | Cc1cc(N2CC[C@@](C#N)(C3CC3)C2=O)nc(NC(=O)Cc2ccccc2)n1 [Example 131, N-(4-((3S)-3-cyano-3-cyclopropyl-2-oxopyrrolidin-1-yl)-6-methylpyrimidin-2-yl)-2-phenylacetamide] | 
